Measured values taken from article PMC3937211, “Serine Carboxypeptidase SCPEP1 and Cathepsin A Play Complementary Roles in Regulation of Vasoconstriction via Inactivation of Endothelin-1” (PLoS Genetics, 2014).

Key:
mesenteric arteries = experiment: Vessel reactivity ex vivo; parameters: species or system mouse; conditions: 10^−11–10^−8 M
Experimental: Vessel reactivity ex vivo was analyzed as described, [40]. Briefly, male mice were sacrificed at five months and their mesenteric arteries were isolated and mounted onto glass capillaries in an artereograph chamber filled with cold oxygenated Krebs solution (118.6 mM NaCl, 4.7 mM KCl, 1.2 mM KH2PO4, 1.2 mM MgSO4, 25.1 mM NaHCO3, 26 µM EDTA, 0.18% glucose, 2.5 mM CaCl2). The arteries were constantly perfused intraluminally with Krebs solution at 30 mmHg. After 45 minutes of equilibration vascular reactivity was measured in response to Norepinephrine (Sigma A-0937, 10^−9–10^−5 M), Acetylcholine (Sigma A-6625, 10^−9–10^−4 M), Sodium Nitroprusside (Calbiochem 56538, 10^−9–10^−4 M), Endothelin-1 (American Peptide Company 88-1-10, 10^−11–10^−8 M) and AI, (American Peptide Company 12-1-10, 10^−8–10^−4 M). Drugs were added extraluminally with a 30 min washout period in between each drug, during which the arteries were able to re-equilibrate to a baseline. To test vasodilatation arteries were pre-contracted with NE to 70% of their equilibration diameter. At least 3 concentration response curves were conducted for each vessel and at least 6 animals were studied for each genotype.

[1] = test system: mice (arterial blood pressure); experiment: Blood pressure response to intravenous peptide injection, radiotelemetry; assay type: in vivo, mouse; conditions: for BP response to i.v. injection: 0.2 nmol/kg i.v.
Experimental: This hypothesis was further tested by measuring changes in BP in response to ET-1 and AI, the precursor of vasoconstrictive peptide AII. The changes in the diastolic and systolic BP (ΔDBP and ΔSBP, respectively) were calculated as the differences between the measured BP values and the basal values measured for the 30 min interval preceding the injection. To reduce the impact of the stress on BP caused by animal handling/injection, animals were receiving daily saline injections for 3 days prior to the experiment.
Figure 3 Mice with combined CathA/Scpep1 deficiency show higher increase in BP in response to systemic injection of ET-1. Sixteen week-old WT, Scpep1^−/−, CathA^S190A and DD male mice kept for two weeks on high-salt diet were intravenously injected with ET-1 solution in saline at a dose of 0.2 nmol/kg (A, B) and 5 nmol/kg (C, D). Changes in the systolic (ΔSBP) or diastolic (ΔDBP) blood pressure were calculated as differences between the means (±S.E) of the BP values recorded within 10 min intervals after the injections and means (±S.E) of the baseline BP values recorded within the 30 min interval before the injections. Two-way repeated measurements ANOVA was used to test differences between the mouse groups: significant differences between the mean BP values in Bonferroni post-test (* p<0.05, ** p<0.001, *** p<0.0001) are shown in the insert. N-value for each genotype is as follows: WT n = 5, DD n = 6, CathA^S190A n = 6, Scpep1 ^−/− n = 7.
Male CathA^S190A mice and appropriate littermate controls were implanted with TA11PA-C10 radiotelemetry sensors (Data Sciences International) in the left carotid artery for direct measurement of arterial pressure and heart rate as described, [38]. The transmitter was placed subcutaneously along the left flank. For basal measurements of mean day and night BP data were recorded continuously (sampling every hour for 20 sec) within 16 consecutive days and averaged for 12 h light and dark intervals. To measure changes in BP after ET-1 and AI injections data were recorded every 3 min for 2 h and averaged for 10-min consecutive intervals. […]

For endothelin-1 [ET-1], the “vessel reactivity versus WT mice” value (mesenteric arteries; mesenteric arteries of CathA^S190A and Scpep1^−/− mice) was “higher”, the “vessel reactivity versus all other groups of mice” value (mesenteric arteries; mesenteric arteries of CathA^S190A/Scpep1^−/− mice) was “significantly higher” and the “BP response to i.v. injection” value ([1]; DD mice versus other genotypes, high-salt diet) was “higher response as compared to all other groups of mice”. For the same substance, the “BP response to i.v. injection” value ([1]; WT and Scpep1-deficient mice on high-salt diet) was “no BP increase” and the “time BP remained significantly elevated after injection” value ([1]; 5 nmol/kg i.v., DD mice) was “at least 60 min”.
